Source: patent EP0748800A2, “Pyrimidinedione, pyrimidinetrione, triazinedione, tetrahydroquinazolinedione derivatives as alpha-1-adrenergic receptor antagonists” (priority 1995, dated 1996)

What was measured:
anesthetized dog [1] = experiment: Dog in vivo intraurethral pressure assay (hypogastric nerve stimulation); settings: i.v., increasing doses, relative to DAP
Procedure: (§1) The following describes an in vivo assay for measuring the relative effect of test compounds on hypogastric nerve stimulation-induced increases in intraurethral pressure and phenylephrine-induced increases in diastolic blood pressure in anesthetized dog.
(§2) Mongrel dogs (10 to 20 kg) were fasted for 12 to 18 hours and anesthetized with pentobarbital sodium (35 mg/kg, i.v.). An endotracheal tube was inserted and thereafter the lungs were mechanically ventilated with room air. The right femoral vein was isolated and cannulated with two polyethylene cannulae, one for the administration of a continuous infusion of pentobarbital sodium (5 to 10 mg/kg/hr) and the other for bolus administration of test substances. The right femoral artery was isolated and cannulated to the abdominal aorta with a fluid filled polyethylene cannula connected to an external pressure transducer for monitoring diastolic aortic pressure (DAP). The bladder was exposed via a ventral midline abdominal incision and emptied of urine through a 22 gauge needle. The bladder was cannulated through a stab incision with a water filled balloon catheter connected to an external pressure transducer for monitoring prostatic intraurethral pressure (IUP). The right hypogastric nerve (HGN) was carefully isolated and attached to a Dastre's electrode for nerve stimulation. […]

anesthetized dog [2] = settings: in vivo, iv
Procedure: as §1, §2

α1-adrenoceptor [3] = settings: relative to rabbit isolated urinary bladder smooth muscle; agonist norepinephrine
Source text: The following describes in vitro assays for measuring the relative effect of test compounds on α1-adrenoceptor mediated contraction of rat, isolated aortic smooth muscle and rabbit, isolated urinary bladder smooth muscle.
Thoracic aorta were isolated from rats and immediately immersed in Krebs' solution (comprising in mM concentrations: NaCl, 118.5; NaHCO3, 25; dextrose, 5; KCl, 4.8; CaCl2, 2.5; MgSO4, 1.2; KH2PO4, 1.2; cocaine, 0.03; corticosterone, 0.03; propranolol, 0.001; ascorbic acid, 0.1; and indomethacin, 0.01). The aortas were dissected free from extraneous tissue and then a cross sectional ring approximately 3 mm in length was cut from the most proximal segment. […] A resting tension of 1 g was applied to each aortic ring and thereafter periodically readjusted to maintain a 1 g resting tension throughout the duration of the assay. […]
The tissue was then exposed to solution free of agonist, replacing the solution twice every 5 minutes for 30 minutes. After baseline tension was established and readjusted to 1 g, the tissue was exposed to bath solution containing the test compound, replacing the solution every 15 minutes for 60 minutes. […]
The concentration ratio (CR) of agonist necessary to produce equiactive responses in the absence and presence of the test compound was determined. […]

α1-adrenoceptor [4] = settings: relative to human isolated arterial smooth muscle; agonist norepinephrine
Source text: (§3) The following describes in vitro assays for measuring the relative effect of test compounds on α1-adrenoceptor mediated contractions of human, isolated arterial and urinary bladder smooth muscle.
Human prostatic and bladder neck smooth muscle tissue was obtained following radical cystoprostatectomies or radical prostatectomies and immediately immersed in Krebs' solution. The prostatic and bladder tissue was dissected free from extraneous tissue and then strips of tissue 0.8 to 1.2 cm in length and 3 to 5 mm in width were cut and suspended vertically in 10 ml tissue baths and bathed in Kreb's solution maintained at 37°C and constantly aerated with a 95% O2 and 5% CO2 gas mixture. A resting tension of 0.75 to 1 g was applied to each muscle strip and thereafter periodically readjusted to maintain a 1 g resting tension throughout the duration of the assay. […]
(§4) The tissue was then exposed to solution free of norepinephrine, replacing the solution twice every 5 minutes for 30 minutes. After baseline tension was established and readjusted to 1 g, the tissue was exposed to bath solution containing the test compound, replacing the solution every 15 minutes for 60 minutes. […]
(§5) The concentration ratio (CR) of norepinephrine necessary to produce equiactive responses in the absence and presence of the test compound was determined. […]

α1-adrenoceptor [5] = settings: relative to human prostatic/bladder neck smooth muscle; agonist norepinephrine
Procedure: as §3
Human arterial blood vessels were obtained post-mortem and immediately immersed in cold physiological saline solution. Within 24 hours of removal the isolated arterial tissue was placed in Krebs' solution (comprising in mM concentrations: NaCl, 118.5; NaHCO3, 25; dextrose, 5; KCl, 4.8; CaCl2, 2.5; MgSO4, 1.2; KH2PO4, 1.2; cocaine, 0.03; corticosterone, 0.03; propranolol, 0.001; ascorbic acid, 0.1; and indomethacin, 0.01). The arteries were dissected free from extraneous tissue and then cut into cross sectional rings approximately 3 mm in length. […] A resting tension of 1 to 1.5 g was applied to each ring and thereafter periodically readjusted to maintain a 1 g resting tension throughout the duration of the assay. […]
as §4, §5

COc1cc2nc(N3CCN(C(=O)c4ccco4)CC3)nc(N)c2cc1OC [prazosin]
inhibition of HGN stimulation-induced increases in IUP (anesthetized dog [1]): inhibited increases in IUP and DAP in a similar fashion
inhibition of phenylephrine-induced increases in DAP (anesthetized dog [2]): inhibited increases in IUP and DAP in a similar fashion
inhibition of α1-adrenoceptor mediated contractions of rat, isolated aortic smooth muscle (α1-adrenoceptor [3]): selectively inhibited
inhibition of α1-adrenoceptor mediated contractions of human, isolated prostatic and bladder neck smooth muscle (α1-adrenoceptor [4]): non-selectively inhibited
inhibition of α1-adrenoceptor mediated contractions of human, isolated arterial smooth muscle (α1-adrenoceptor [5]): non-selectively inhibited
